What was measured:
Format in all cases: cell-based
[1] = system: Human skin fibroblasts (HSF); test: Cell proliferation assay (MTT) on HSF cells; details: 72 h, FIG. 6
Text: (§1) Human skin fibroblasts (HSF) were purchased from the Shanghai Cell Bank of China Center for Type Culture Collection under the Chinese Academy of Sciences.
Polypeptide group: Peptide (26), peptide (33), peptide (39) and peptide (49). The test concentrations of all the above samples were 1 ppm, 10 ppm, 50 ppm, 100 ppm, 200 ppm, 500 ppm and 1000 ppm.
Blank control group: PBS.
Positive control group: 2% DMSO.
(§2) Cells in good exponential growth phase were taken. A 0.25% trypsin digestion solution was added so that digestion allowed the adherent cells to fall off, counting 1 to 4×10^5 cells/mL, which were prepared into a cell suspension.
The cell suspension was inoculated into a 96-well plate with 200 µL/well, and cultured in a constant-temperature CO2 incubator for 24 h. […]
20 μL of 5 mg/mL MTT was added to each well and the incubation was continued in the 5% CO2 incubator at 37° C. for 4 h. […] After shaking the plate on a plate shaker for 5 min, a microplate reader was used to determine the OD value of each well at a wavelength of 570 nm, and the cell viability was calculated.
The MTT assay is a method of detecting cell survival and growth. The measured OD values are directly proportional to cell viability. […]

[2] = system: Human keratinocytes (HaCaT); test: Photoaging experiment (UV-irradiated HaCaT, MTT); details: 80 mJ/cm^2 UV, 24 h, compared with the UV group, FIG. 7
Description: (§3) Human keratinocytes (HaCaT) were purchased from the Kunming Cell Bank of China Center for Type Culture Collection under the Chinese Academy of Sciences.
Polypeptide group: Peptide (26), peptide (33), peptide (39) and peptide (49). The test concentrations of all the above samples were 1 ppm, 10 ppm, 50 ppm, 100 ppm, and 200 ppm.
as §2
The cell suspension was properly diluted and inoculated into a 96-well plate at 10,000 cells/well. When the cells reached approximately 80% confluence, a UV photoaging model was established. In the blank control group, 50 μL of PBS was added, and supplemented with the culture medium to 200 μL, while no UV irradiation was performed. For the UV group and the polypeptide groups, a proper amount of PBS was added to wash the culture repeatedly until colorless, followed by adding 50 μL of PBS and irradiating under an 80 mJ/cm^2 UV light. The distance between the light source and the culture bottle was 15 cm. After irradiation, the PBS was removed. In the UV group, a PBS solution and the culture medium were added to 200 μL; in the polypeptide groups, the culture medium and the samples diluted in a certain ratio were added to 200 μL. The blank control group, the UV group, and the polypeptide groups were further incubated in a 5% CO2 incubator at 37° C. for 24 h.
Then 22 μL of 5 mg/mL MTT was added to each well and the incubation was continued in the 5% CO2 incubator at 37° C. for 4 h. The original solution was removed and 150 µL/well of DMSO was added. After shaking the plate on a plate shaker for 5 min, a microplate reader was used to read the reference OD values at wavelengths of 490 nm and 630 nm.
Skin aging is affected by endogenous and exogenous factors, such as genetics, environmental exposure, UV irradiation, hormonal changes, etc. The accumulation of these factors, especially exposure to UV irradiation, leads to changes in structure, function and appearance of the skin. In this experiment, 80 mJ/cm^2 UV energy was selected for radiation to establish a skin photoaging model.

[3] = system: Human skin fibroblasts (HSF); test: Collagen content assay (collagen I ELISA, UV photoaging model); details: 100 ppm, UV-irradiated HSF, 48 h, FIG. 10
Description: as §1
Polypeptide group: Palmitoyl pentapeptide-4 (Palm-Lys-Thr-Thr-Lys-Ser-OH), peptide (26), peptide (32), peptide (33), peptide (39), and peptide (49), all at a test concentration of 100 ppm;
HSF cells in good exponential growth phase were taken. A 0.25% trypsin digestion solution was added so that digestion allowed the adherent cells to fall off, counting 1 to 4×10^6 cells/mL, which were prepared into a cell suspension.
The cell suspension was inoculated into a 6-well plate at 10^5 cells/well. A UV photoaging model was established when the cells reached approximately 80% confluence. In the blank control group, 200 μL of PBS was added, supplemented with the culture medium to 800 μL, while no UV irradiation was performed. For the UV group and the polypeptide groups, a proper amount of PBS was added to wash the culture repeatedly until colorless, followed by adding 200 μL of PBS and irradiating under an 80 mJ/cm^2 UV light. The distance between the light source and the culture bottle was 15 cm. After irradiation, the PBS was removed. In the UV group, a PBS solution and culture medium were added to 800 μL; in the polypeptide groups, the culture medium and the samples diluted in a certain ratio were added to 800 μL. The blank control group, the UV group, and the polypeptide groups were further incubated in a 5% CO2 incubator at 37° C. for 48 h.
After completion of the culture, the cells were scraped off using a cell scraper, mixed by pipetting, and the cell protein was extracted using RIPA and quantified to 1 mg/mL with BCA. The procedure was performed according to the operation instructions of collagen I ELISA. The OD value of each well was measured in sequence at 450 nm using a microplate reader within 15 min.
Collagen is the most abundant protein found in connective tissue, and provides plumpness and firmness to the skin. […] In this experiment, UV-irradiated cells were treated with test samples, and the content of collagen I in corresponding cells was detected to determine whether the peptide of the present invention can promote collagen synthesis.

[4] = system: Human keratinocytes (HaCaT); test: Determination of hyaluronic acid content; details: 10 ppm, 48 h, compared with blank control group, FIG. 9
Description: as §3
Polypeptide group: Peptide (26), peptide (33), peptide (39) and peptide (49). The test concentrations of all the above samples were 10 ppm.
A bottle of HaCaT cells in good exponential growth phase was taken. A 0.25% trypsin digestion solution was added so that digestion allowed the adherent cells to fall off, counting 1 to 4×10^6 cells/mL, which were prepared into a cell suspension.
The cells were inoculated into a 6-well plate at 10^5 cells/well, and grouped when the cells reached approximately 80% confluence. […]
After completion of the culture, cells were scraped off using a cell scraper, and 200 μL of RIPA lysis buffer was added to extract proteins. […] The total protein concentration was quantified to 1 mg/mL using the BCA method. […] The OD value of each well was measured in sequence at 570 nm using a microplate reader within 15 min.
Hyaluronic acid is one of the main matrix ingredients of the human skin epidermis and an important component of the skin barrier. […] This experiment measured the effect of the peptide of the present invention on the hyaluronic acid content to determine whether the peptide of the invention can increase the hyaluronic acid content and thus play a role in moisturizing and anti-aging repair.

[5] = system: Human keratinocytes (HaCaT); test: Cell scratch assay; details: 24 h, FIG. 8; for order of effects on promoting the proliferation and migration of HaCaT cells: 50-100 ppm
Description: as §3
Polypeptide group: Peptide (26), peptide (33), peptide (39) and peptide (49). The test concentrations of all the above samples were 50 ppm and 100 ppm.
Positive control group: 50 U/mL of EGF.
A bottle of HaCaT cells in good exponential growth phase was taken. A 0.25% trypsin digestion solution was added so that digestion allowed the adherent cells to fall off, counting 1 to 4×10^5 cells/mL, which were prepared into a cell suspension.
The cells were inoculated into a 24-well plate at a density of 150,000 cells/well, with 2 mL cell suspension per well. After the cells attached to the wall and grew to 100% confluence, the culture medium was replaced with a medium containing 0.5%-1% fetal bovine serum to maintain the cells for 24 h for synchronization. A sterilized pipette tip was used to scratch a wound, the detached cells were washed off with PBS, and the samples to be tested were added. The incubation was continued in the 5% CO2 incubator at 37° C., and the migration of cells was observed under an optical microscope after 24 h.
The scratch migration experiment of cells can reflect the proliferation and repair ability of cells. A scratch assay was performed on the basis of HaCaT cells growing all over the dish, and the migration of cells was observed under an optical microscope 24 h after administration of the samples to evaluate the effect of the test samples on cell proliferation and migration.

Row | Compound | activity of photoaged HaCaT keratinocytes ([2]; range of 1-200 ppm) | collagen content (collagen I) compared with palmitoyl pentapeptide-4 [3] | order of effects on promoting the proliferation and migration of HaCaT cells [5] | other results
1 | C[S+](C)[O-] [DMSO, dimethyl sulfoxide, reference compound] | – | – | – | HSF cell viability (positive control) ([1]; 2% DMSO, compared with blank control group): toxic effect on HSF cells
2 | Ac-Lys-Arg-Tyr-Gly-Trp-NH2 (Ac-KRYGW-NH2) [peptide (49)] | improve the activity of HaCaT keratinocytes to different degrees | more significantly increase the collagen content | peptide (33)>peptide (26)>peptide (49)>peptide (39) | hyaluronic acid content [4]: more superior technical effects
3 | Ac-Lys-Lys-Trp-Val-Thr-His-NH2 (Ac-KKWVTH-NH2) [peptide (39)] | – | more significantly increase the collagen content | peptide (33)>peptide (26)>peptide (49)>peptide (39) | activity of photoaged HaCaT keratinocytes ([2]; at 1 ppm, 100 ppm and 200 ppm): improve cell activity; HSF cell activity / proliferation of HSF fibroblasts ([1]; low concentration of 1-10 ppm): significantly increase cell activity and promote the proliferation of HSF fibroblasts
4 | Ac-Lys-Pro-Leu-Trp-His-Val-NH2 (Ac-KPLWHV-NH2) [peptide (33)] | improve the activity of HaCaT keratinocytes to different degrees | more significantly increase the collagen content | peptide (33)>peptide (26)>peptide (49)>peptide (39) | –
5 | Ac-Lys-Pro-Leu-Trp-His-Val-OH (Ac-KPLWHV-OH) [peptide (32)] | – | more significantly increase the collagen content | – | –
6 | Ac-Tyr-Gly-Trp-Lys-Lys-Gln-NH2 (Ac-YGWKKQ-NH2) [peptide (26)] | improve the activity of HaCaT keratinocytes to different degrees | more significantly increase the collagen content | peptide (33)>peptide (26)>peptide (49)>peptide (39) | hyaluronic acid content [4]: more superior technical effects
7 | EGF: Positive control group: 50 U/mL of EGF [reference compound] | – | – | – | cell proliferation and migration of HaCaT cells (positive control) ([5]; 50 U/mL, compared with blank control group): obvious cell proliferation and migration
